Data as given in patent US20100168099A1, “1H-QUINOLIN-4-ONE COMPOUNDS, WITH AFFINITY FOR THE GABA RECEPTOR, PROCESSES, USES AND COMPOSITIONS” (FERRER INTERNACIONAL, S.A., priority 2006, published 2010).

What was measured:
α1-GABAA receptor = assay: Ligand-binding assay, radiolabeled flumazenil competition, cerebellum membranes; design: species or system rat; details: for Affinity for the α1-subunit of the GABAA receptor, % inhibition: rat cerebellum membranes, radiolabeled flumazenil 1 nM; for affinity for α1-subunit of GABAA receptor (in words): compared with zolpidem where stated; for α1-/α2-selectivity (in words): compared with zolpidem
Procedure: (§1) a) Ligand-binding Assays. Determination of the Affinity of Test Compounds for α1- and α2-GABAA, Receptor
(§2) Male Sprague-Dawley rats weighing 200-250 g at the time of experiment were used. After decapitation of the animal, the cerebellum (tissue that mostly contains α1-GABAA receptor) and spinal cord (tissue that mostly contains α2-GABAA receptor) were removed. The membranes were prepared according to the method by J. Lameh et al. (Prog. Neuro-Psychopharmacol. Biol. Psychiatry, 24, 979-991, 2000) and H. Noguchi et al. (Eur J Pharm, 434, 21-28, 2002) with slight modifications. Once the tissues weighed, they were suspended in 50 mM Tris.HCl (pH 7.4), 1:40 (v/v), or sucrose 0.32 M in the case of spinal cord, homogenized and then centrifuged at 20,000 g for 10 min at 7° C. The resulting pellet was resuspended under the same conditions and centrifuged again. The pellet was finally resuspended on a minimum volume and kept at −80° C. overnight. On the next day, the process was repeated until the final pellet was resuspended at a ratio of 1:10 (v/v) in the case of cerebellum and at a ratio of 1:5 (v/v) in the case of spinal cord.
(§3) Affinity was determined by competitive tests using radiolabeled flumazenil as ligand. The tests were performed according to the methods described by S. Arbilla et al. (Eur. J. Pharmacol., 130, 257-263, 1986); and Y. Wu et al. (Eur. J. Pharmacol., 278, 125-132, 1995) using 96-well microtiter plates. The membranes containing the study receptors, flumazenil (radiolabeling at a final concentration of 1 nM) and ascending concentrations of test compounds (in a total volume of 230 μL in 50 mM [pH 7.4] Tris.HCl buffer) were incubated. Simultaneously, the membranes were only incubated with the radiolabeled flumazenil (total binding, 100%) and in the presence of an elevated concentration of unradiolabeled flumazenil (non-specific binding, % estimation of radiolabeled ligand). The reactions started on adding the radiolabeled ligand followed by incubation for 60 minutes at 4° C. At the end of the incubation period, 200 μL of reaction were transferred to a multiscreen plate (Millipore) and filtered using a vacuum manifold and then washed three times with cold test buffer. The multiscreen plates were equipped with a GF/B filter that retained the membranes containing the receptors and the radiolabeled ligand which had been bound to the receptors. After washing, the plates were left till dry. Once dried, scintillation liquid was added and left under stirring overnight. The next day the plates were counted using a Perkin-Elmer Microbeta scintillation counter.
(§4) For analysis of the results the percentage of specific binding for every concentration of test compound was calculated as follows:
(§5) % specific binding=(X−N/T−N)×100
(§6) where, X: amount of bound ligand for every concentration of compound. T: total binding, maximum amount bound to the radiolabeled ligand. N: non-specific binding, amount of radiolabeled ligand bound in a non-specific way irrespective of the receptor used.
(§7) Every concentrations of compound were tested in triplicate and their mean values were used to determine the experimental values of % specific binding versus the concentration of compound. Affinity data are expressed as % inhibition at 10^−5M and 10^−7M concentrations.

[1] = test system: spontaneous motor activity of male CD1 mice; assay: In vivo predictive sedation-hypnosis test (traveled distance); details: Mus musculus, ip, 0.5 h, 98 μmol/kg, single intraperitoneal dose, 30 minutes after dosing (first 5 min discarded), versus control
Procedure: b) In Vivo Determination of Predictive Sedative-Hypnotic Action
The in vivo effects of these compounds were assessed by a predictive sedation-hypnosis test in mice (D. J. Sanger et al., Eur. J. Pharmacol., 313, 35-42, 1996; and G. Griebel et al., Psychopharmacology, 146, 205-213, 1999).
Groups of 5-8 male CD1 mice, weighing 22-26 g at the time of test, were used. The test compounds were administered in single equimolecular intraperitoneal doses, suspended in 0.25% agar with one drop of Tween in a volume of 10 mL/kg. Control animals received the vehicle alone. Using a Smart System (Panlab, S. L., Spain) the traveled distance in cm was recorded for each mouse at 5 min intervals during a period of 30 minutes after dosing. The inhibition percentage traveled distance of treated animals versus control animals (the first 5 min were discarded) was calculated.

α2-GABAA receptor = assay: Ligand-binding assay, radiolabeled flumazenil competition, spinal cord membranes; design: species or system rat; details: for Affinity for the α2-subunit of the GABAA receptor, % inhibition: rat spinal cord membranes, radiolabeled flumazenil 1 nM
Procedure: as §1, §2, §3, §4, §5, §6, §7

SMILES	Affinity for the α1-subunit of the GABAA receptor, % inhibition (α1-GABAA receptor; 10^−5M)	Affinity for the α1-subunit of the GABAA receptor, % inhibition (α1-GABAA receptor; 10^−7M)	affinity for α1-subunit of GABAA receptor (in words) (α1-GABAA receptor)	inhibition in vivo at 98 µmol/kg [1]	Affinity for the α2-subunit of the GABAA receptor, % inhibition (α2-GABAA receptor; 10^−5M)	Affinity for the α2-subunit of the GABAA receptor, % inhibition (α2-GABAA receptor; 10^−7M)	α1-/α2-selectivity (in words) (α1-GABAA receptor)	affinity for the α2-subunit of GABAA receptor (in words) (α2-GABAA receptor; compared with zolpidem where stated)
Cc1cccc2c1c(=O)cc(-c1ccccc1)n2CC(=O)N1CCOCC1 [Example 1, 5-Methyl-1-(2-morpholin-4-yl-2-oxo-ethyl)-2-phenyl-1H-quinolin-4-one]	99.5%	57.9%	higher affinity	–	–	–	–	–
Cc1cccc2c1c(=O)cc(-c1ccccc1)n2CC(=O)N1CCCC1 [Example 11, 5-Methyl-1-(2-oxo-2-pyrrolidin-1-yl-ethyl)-2-phenyl-1H-quinolin-4-one]	99.9%	52.6%	higher affinity	–	–	–	–	–
CCCN(CCC)C(=O)Cn1cc(-c2ccccc2)c(=O)c2ccc(C)cc21 [Example 14, 2-(7-Methyl-4-oxo-3-phenyl-4H-quinolin-1-yl)-N,N-dipropyl-acetamide]	98.4%	36.7%	higher affinity	96.2%	77.3%	40.6%	–	–
Cc1ccc2c(=O)c(-c3ccccc3)cn(CC(=O)N3CCCCC3)c2c1 [Example 15, 7-Methyl-1-(2-oxo-2-piperidin-1-yl-ethyl)-3-phenyl-1H-quinolin-4-one]	87.3%	0.0%	–	84.7%	13.3%	0.0%	higher α1-/α2-selectivity than the most selective therapeutically used compound zolpidem	–
CCN(CC)C(=O)Cn1cc(-c2ccccc2)c(=O)c2ccc(C)cc21 [Example 17, N,N-Diethyl-2-(7-methyl-4-oxo-3-phenyl-4H-quinolin-1-yl)-acetamide]	91.4%	0.7%	–	81.5%	70.1%	0.0%	–	–
Cc1ccc2c(=O)c(-c3ccccc3)cn(CC(=O)N3CCCC3)c2c1 [Example 18, 7-Methyl-1-(2-oxo-2-pyrrolidin-1-yl-ethyl)-3-phenyl-1H-quinolin-4-one]	86.2%	7.5%	–	84.5%	66.3%	0.0%	higher α1-/α2-selectivity than the most selective therapeutically used compound zolpidem	–
Cc1ccc2c(=O)c(-c3ccccc3)cn(CC(=O)c3cccs3)c2c1 [Example 27, 7-Methyl-1-(2-oxo-2-thiophen-2-yl-ethyl)-3-phenyl-1H-quinolin-4-one]	97.7%	14.0%	–	70%	89.9%	8.4%	–	higher affinity than prior art compound zolpidem
Cc1ccc2c(=O)c(-c3ccccc3)cn(CC(=O)c3ccccn3)c2c1 [Example 28, 7-Methyl-1-(2-oxo-2-pyridin-2-yl-ethyl)-3-phenyl-1H-quinolin-4-one]	97.9%	22.5%	–	84.4%	88.0%	0.0%	–	–
Cc1ccc2c(=O)c(-c3ccccc3)cn(CC(=O)N3CC(C)OC(C)C3)c2c1 (centres unmarked) [Example 32, 1-[2-(2,6-Dimethyl-morpholin-4-yl)-2-oxo-ethyl]-7-methyl-3-phenyl-1H-quinolin-4-one]	86.2%	18.4%	–	90%	55.4%	0.0%	higher α1-/α2-selectivity than the most selective therapeutically used compound zolpidem	–
Cc1ccc2c(=O)c(-c3ccccc3)cn(CC(=O)c3oc(C)nc3C)c2c1 [Example 33, 1-[2-(2,4-Dimethyl-oxazol-5-yl)-2-oxo-ethyl]-7-methyl-3-phenyl-1H-quinolin-4-one]	97.0%	33.9%	–	91.7%	–	–	–	–
CCCN(CCC)C(=O)Cn1cc(-c2ccc(OC)cc2)c(=O)c2ccc(C)cc21 [Example 36, 2-[3-(4-Methoxy-phenyl)-7-methyl-4-oxo-4H-quinolin-1-yl]-N,N-dipropyl-acetamide]	95.9%	20.3%	–	92.1%	–	–	–	–
CCCN(CC1CC1)C(=O)Cn1cc(-c2ccccc2)c(=O)c2ccc(C)cc21 [Example 39, N-Cyclopropylmethyl-2-(7-methyl-4-oxo-3-phenyl-4H-quinolin-1-yl)-N-propyl-acetamide]	98.8%	56.3%	higher affinity	92.5%	93.4%	28.5%	–	–
Cc1ccc2c(=O)c(-c3ccccc3)cn(CC(=O)N3C(C)C=CC3C)c2c1 (centres unmarked) [Example 42, 1-[2-(2,5-Dimethyl-2,5-dihydro-pyrrol-1-yl)-2-oxo-ethyl]-7-methyl-3-phenyl-1H-quinolin-4-one]	97.0%	25.6%	–	92.2%	74.1%	0.0%	–	–
CCCN(CCC)C(=O)Cn1cc(-c2ccccc2)c(=O)c2ccc(Br)cc21 [Example 44, 2-(7-Bromo-4-oxo-3-phenyl-4H-quinolin-1-yl)-N,N-dipropyl-acetamide]	99.8%	61.9%	higher affinity	95.2%	–	–	–	–
C=CCN(CC=C)C(=O)Cn1cc(-c2ccccc2)c(=O)c2ccc(Br)cc21 [Example 129, N,N-Diallyl-2-(7-bromo-4-oxo-3-phenyl-4H-quinolin-1-yl)-acetamide]	99.7%	85.2%	higher affinity	93.5%	–	–	–	–
